One series concerns Boophilus microplus. In words: Boophilus microplus injection test. It counts as in vivo. As to conditions: application rate 20 μg/animal, assessed after 7 days by laying of fertile eggs. The method, then: Boophilus microplus—Injection Test Solvent: dimethyl sulphoxide
To produce a suitable active ingredient formulation, 10 mg of active ingredient are mixed with 0.5 ml of solvent and the concentrate is diluted with solvent to the desired concentration.
1 μl of the active ingredient solution is injected into the abdomen of 5 engorged adult female cattle ticks (Boophilus microplus). The animals are transferred into dishes and kept in a climate-controlled room.
Efficacy is assessed after 7 days by laying of fertile eggs. Eggs which are not visibly fertile are stored in a climate-controlled cabinet until the larvae hatch after about 42 days. An efficacy of 100% means that none of the ticks has laid any fertile eggs; 0% means that all the eggs are fertile.

For series [1], the system named is Myzus persicae. As to the kind of experiment: Myzus persicae spray test (Chinese cabbage leaf discs). It counts as in vivo. As to conditions: application rate 500 g/ha, after 6 days. An outline of the steps: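 Active ingredient was formulated in acetone/DMF and diluted with water containing 1000 ppm emulsifier. Chinese cabbage leaf discs infested with all aphid stages were sprayed, and % kill was scored after 6 days (100% = all aphids dead).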

The test system of series [2] is Myzus persicae. As to the kind of experiment: Myzus persicae oral test. It counts as in vivo. The settings on record: application rate 20 ppm, oral uptake through parafilm, after 5 days. An outline of the steps: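 Oral feeding format: mixed-stage Myzus persicae imbibe acetone/water compound formulation in sugared IPL41 medium through parafilm. Efficacy assessed as percent aphids killed at day 5.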

A short description of series [3]: log P by HPLC on reversed-phase column (EEC directive 79/831 Annex V.A8). In kind it is physicochemical. As to conditions: for log p: HPLC on reversed-phase column (footnote a); for log p a): HPLC on reversed-phase column. An outline of the steps: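 Reversed-phase (C18) HPLC at 43° C, following EEC directive 79/831 Annex V.A8.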
A further series deals with Diabrotica balteata. In words: Diabrotica balteata spray test. In kind it is in vivo. As to conditions: application rate 160 μg/well, wheat grains with beetle larvae, after 7 days. The method, then:
Diabrotica balteata—Spray Test Solvent: 78 parts by weight of acetone • • 1.5 parts by weight of dimethylformamide Emulsifier: alkylaryl polyglycol ether
To produce a suitable active ingredient formulation, 1 part by weight of active ingredient is dissolved with the stated parts by weight of solvent and made up with water containing an emulsifier concentration of 1000 ppm until the desired concentration is attained. To produce further test concentrations, the formulation is diluted with emulsifier-containing water.
Pre-swollen wheat grains (Triticum aestivum) are incubated in a multiwell plate filled with agar and a little water for one day (5 seed grains per cavity). The germinated wheat grains are sprayed with an active ingredient formulation of the desired concentration. Subsequently, each cavity is infected with 10-20 beetle larvae of Diabrotica balteata.
After 7 days, the efficacy in % is determined. 100% means that all wheat plants have grown as in the untreated, uninfected control; 0% means that no wheat plant has grown.

Another series has as its system Lucilia cuprina. In words: Lucilia cuprina test. As to conditions: application rate 100 ppm, L1 larvae, after 2 days. In kind it is in vivo. The method, then:
Lucilia cuprina Test Solvent: dimethyl sulphoxide
To produce a suitable active ingredient formulation, 10 mg of active ingredient are mixed with 0.5 ml of dimethyl sulphoxide, and the concentrate is diluted with water to the desired concentration.
About 20 L1 larvae of the Australian sheep blowfly (Lucilia cuprina) are transferred into a test vessel containing minced horsemeat and the active ingredient formulation of the desired concentration.
After 2 days, the kill in % is determined. 100% means that all the larvae have been killed; 0% means that no larvae have been killed.

For the next series, the system named is Meloidogyne incognita. As to the kind of experiment: Meloidogyne incognita test. It counts as in vivo. The settings on record: application rate 20 ppm, formation of galls on lettuce after 14 days. On the procedure:
Meloidogyne incognita Test Solvent: 125.0 parts by weight of acetone
To produce a suitable preparation of active ingredient, 1 part by weight of active ingredient is mixed with the stated amount of solvent and the concentrate is diluted with water to the desired concentration.
Vessels are filled with sand, active ingredient solution, an egg/larvae suspension of the southern root-knot nematode (Meloidogyne incognita) and lettuce seeds. The lettuce seeds germinate and the plants develop. The galls develop on the roots.
After 14 days, the nematicidal efficacy in % is determined by the formation of galls. 100% means that no galls were found; 0% means that the number of galls on the treated plants corresponds to the untreated control.

The next series has as its system Ctenocephalides felis. As to the kind of experiment: Ctenocephalides felis in vitro contact test with adult cat fleas. In kind it is in vivo. As to conditions: application rate 5 μg/cm^2, after 48 h, adult cat fleas dead or moribund. The method, then:
Ctenocephalides felis—In Vitro Contact Tests with Adult Cat Fleas
For the coating of the test tubes, 9 mg of active ingredient are first dissolved in 1 ml of acetone p.a. and then diluted to the desired concentration with acetone p.a. 250 μl of the solution are distributed homogeneously on the inner walls and the base of a 25 ml test tube by turning and rocking on an orbital shaker (rocking rotation at 30 rpm for 2 h). With 900 ppm of active ingredient solution and internal surface area 44.7 cm^2, given homogeneous distribution, an area-based dose of 5 μg/cm^2 is achieved.
After the solvent has evaporated off, the tubes are populated with 5-10 adult cat fleas (Ctenocephalides felis), sealed with a perforated plastic lid and incubated in a horizontal position at room temperature and ambient humidity. After 48 h, efficacy is determined. To this end, the test tubes are stood upright and the fleas are knocked to the base of the tube. Fleas which remain motionless at the base or move in an uncoordinated manner are considered to be dead or moribund.
100% efficacy means that all the fleas were dead or moribund. 0% efficacy means that no fleas were harmed.

Series [4] concerns Myzus persicae. As to the kind of experiment: Myzus persicae spray test (bell pepper plants). It counts as in vivo. The settings on record: application rate 100 ppm, after 6 days. On the procedure: Myzus persicae—Spray Test Solvent: 14 parts by weight of dimethylformamide Emulsifier: alkylaryl polyglycol ether
To produce a suitable active ingredient formulation, 1 part by weight of active ingredient is dissolved with the stated parts by weight of solvent and made up with water containing an emulsifier concentration of 1000 ppm until the desired concentration is attained. To produce further test concentrations, the formulation is diluted with emulsifier-containing water. If the addition of ammonium salts or/and penetrants is required, these are each added in a concentration of 1000 ppm to the formulation solution.
Bell pepper plants (Capsicum annuum) severely infested with the green peach aphid (Myzus persicae) are treated by spraying with the active ingredient formulation in the desired concentration.
After 6 days, the kill in % is determined. 100% means that all of the aphids have been killed; 0% means that none of the aphids have been killed.

The values that follow come from patent publication US20180282323A1, “Mesoionic imidazole derivatives as insecticides” (BAYER CROPSCIENCE AKTIENGESELLSCHAFT, priority 2015, published 2018).

In the case of `Cc1ccn(CC(=O)c2c([O-])n(Cc3cnc(Cl)s3)c3cccc[n+]23)n1` [Example I-1-012], the efficacy in the series on Boophilus microplus is 100%; in the series with Myzus persicae [1], 90%; in the series on Myzus persicae [2], 100%. In [3], this molecule came in with a log p of 1.63.
For `CC(C)OCC(=O)c1c([O-])n(Cc2ccc(Cl)nc2)c2cccc[n+]12` [Example I-1-016], the efficacy in the series on Boophilus microplus, in the series with Myzus persicae [1] and in the series on Myzus persicae [2] was 100% in each case. Moreover, in series [3], the log p amounted to 1.67.
In the case of `CCOCC(=O)c1c([O-])n(Cc2ccc(Cl)nc2)c2cccc[n+]12` [Example I-1-020], the efficacy in the series on Boophilus microplus came to 80%; with Diabrotica balteata, 100%; in the series on Myzus persicae [1], 90%; with Myzus persicae [2], 100%. The log p in series [3] stood at 1.39.
With `Cc1cnn(CC(=O)c2c([O-])n(Cc3cnc(Cl)s3)c3cccc[n+]23)c1` [Example I-1-049], the efficacy in the series on Boophilus microplus amounted to 80%; in the series on Myzus persicae [1], 90%; in the series with Myzus persicae [2] it was 100%. Further, in the series with Lucilia cuprina, the “efficacy (kill in %)” value was determined as 100%. In addition, the log p in [3] is on record as 1.72.
As to `CSc1ccn(CC(=O)c2c([O-])n(Cc3ccc(Cl)nc3)c3cccc[n+]23)n1` [Example I-1-054], the efficacy in the series on Boophilus microplus, in the series with Myzus persicae [1] and in the series on Myzus persicae [2] was 100% throughout. The log p in series [3] stood at 1.35.
In the case of `CCOCC(=O)c1c([O-])n(Cc2ccc(Cl)nc2)c2c(Cl)ccc[n+]12` [Example I-1-116], the nematicidal efficacy with Meloidogyne incognita worked out at 90%. For the same molecule, the efficacy in the series with Myzus persicae [2] came to 100%. Besides, the log p in series [3] is 1.78.
For the molecule `O=C(NCC1CC1)c1c([O-])n(Cc2cnc(Cl)s2)c2cccc[n+]12` [Example I-1-143], the efficacy in the series with Ctenocephalides felis and in the series with Diabrotica balteata was 100% throughout. Besides, the nematicidal efficacy in the series with Meloidogyne incognita is recorded as 90%. Further, in series [3], the log p turned out to be 1.99.
On to `O=C(NC1CC1)c1c([O-])n(Cc2cncnc2)c2cccc[n+]12` [Example I-1-152], for which the values for the efficacy with Boophilus microplus, with Myzus persicae [1] and in the series on Myzus persicae [2] were 80%, 90% and 100%, respectively. The molecule also returned a log p in [3] of 0.84.
As for `CC(c1ccc(Cl)nc1)n1c([O-])c(C(=O)CCl)[n+]2ccccc12` (stereo not shown) [Example I-1-161], in the series on Meloidogyne incognita, the nematicidal efficacy is 90%. In the series on Myzus persicae [2], this molecule yielded an efficacy of 100%. In [3], this molecule had a log p of 1.75.
`COCC(=O)c1c([O-])n(Cc2ccc(Cl)nc2)c2ccc(F)c[n+]12` [Example I-1-165]: the efficacy in the series on Boophilus microplus is 100%; with Myzus persicae [1], 90%; in the series with Myzus persicae [2], 100%. This molecule also showed a log p in series [3] of 1.39.
As for `Cc1ccc[n+]2c(C(=O)NCc3ccc(Cl)cc3)c([O-])n(Cc3ccc(Cl)nc3)c12` [Example I-1-176], in the series on Meloidogyne incognita, the nematicidal efficacy came out at 90%. In series [3], this molecule gave a log p of 2.92.
On the same counts, the results for `O=C(NC1CC1)c1c([O-])n(Cc2ccc(Cl)nc2)c2c(OC(F)(F)F)ccc[n+]12` [Example I-1-196] are 90% and 2.33.
Consider `CC(c1ccc(Cl)nc1)n1c([O-])c(C(=O)NC2CC2)[n+]2ccccc12` (stereo not shown) [Example I-1-202], for which the efficacy in the series with Boophilus microplus stood at 80%; in the series on Diabrotica balteata it was 80%; in the series on Myzus persicae [2] it was 100%. In addition, the results for the “efficacy (kill in %)” value in the series with Lucilia cuprina and in the series with Myzus persicae [4] were 100% and 90%, respectively. Moreover, the “log p a)” value in [3] was 1.75.
As to `Cc1cnc(Cn2c([O-])c(C(=O)NC3CC3)[n+]3ccccc23)cn1` [Example I-1-217], the efficacy with Boophilus microplus is 80%; in the series on Myzus persicae [1], 100%; in the series with Myzus persicae [2], 100%. Further, the “log p a)” value in series [3] worked out at 1.13.
With `Cc1ccccc1NC(=O)c1c([O-])n(Cc2cnc(Cl)s2)c2cccc[n+]12` [Example I-1-239], the efficacy in the series with Ctenocephalides felis and in the series on Myzus persicae [2] was 100% each time. For the same molecule, in [3], the “log p a)” value worked out at 3.03.
On to `COc1ccc[n+]2c(C(=O)NC3CC3)c([O-])n(Cc3cnc(Cl)s3)c12` [Example I-1-240], for which the efficacy in the series on Ctenocephalides felis and in the series with Myzus persicae [2] was 100% throughout. Besides, the “log p a)” value in [3] worked out at 1.96.
Take `Cc1ccc(Cn2c([O-])c(C(=O)NC3CC3)[n+]3ccccc23)cn1` [Example I-1-243]: the efficacy in the series on Ctenocephalides felis and in the series with Myzus persicae [2] was 100% each time. For the same molecule, the “log p a)” value in [3] is listed as 0.81.
`CC(c1cnc(Cl)s1)n1c([O-])c(C(=O)NC2CC2)[n+]2ccccc12` (stereo not shown) [Example I-1-254]: the efficacy in the series with Boophilus microplus stood at 80%; with Diabrotica balteata, 100%; in the series on Myzus persicae [1], 90%; in the series on Myzus persicae [2], 100%. Also, the “efficacy (kill in %)” value with Lucilia cuprina stood at 100%. In [3], the “log p a)” value came out at 1.94.
In the case of `Cc1ccc[n+]2c(C(=O)Nc3c(F)cccc3Cl)c([O-])n(Cc3cnc(Cl)s3)c12` [Example I-1-276], the efficacy in the series on Diabrotica balteata is 100%; in the series on Myzus persicae [1], 90%; with Myzus persicae [2] it was 100%. Moreover, in the series with Meloidogyne incognita, the nematicidal efficacy is listed as 90%. In series [3], the “log p a)” value worked out at 2.93.
`O=C(Nc1c(Cl)cccc1Cl)c1c([O-])n(Cc2ccc(Cl)nc2)c2cccc[n+]12` [Example I-1-314]: the nematicidal efficacy in the series on Meloidogyne incognita stood at 90%. The efficacy with Myzus persicae [1] and in the series on Myzus persicae [2] was 100% each time. Also, in series [3], the “log p a)” value was 2.59.
As to `O=C(Nc1c(F)cccc1Cl)c1c([O-])n(Cc2ccc(Cl)nc2)c2cccc[n+]12` [Example I-1-316], in the series with Meloidogyne incognita, the nematicidal efficacy is 90%. Further, the efficacy in the series on Myzus persicae [1] and in the series on Myzus persicae [2] was 100% in each case. In addition, the “log p a)” value in series [3] stood at 2.44.
As to `Cc1cccc(C)c1NC(=O)c1c([O-])n(Cc2cnc(Cl)s2)c2cccc[n+]12` [Example I-1-321], the nematicidal efficacy in the series on Meloidogyne incognita was determined as 90%. This molecule also showed an efficacy in the series with Myzus persicae [2] of 100%. In [3], the “log p a)” value was 2.76.
The like results for `COc1cccc(F)c1NC(=O)c1c([O-])n(Cc2cnc(Cl)s2)c2cccc[n+]12` [Example I-1-323] were, in that order, 90%, 100% and 2.27.
